From PMC3626250, “Effects of Borneol on Pharmacokinetics and Tissue Distribution of Notoginsenoside R1 and Ginsenosides Rg1 and Re in Panax notoginseng in Rabbits” (Journal of Analytical Methods in Chemistry, 2013)
Marks after values point to notes of the source that are not given here.

Experiments:
[1] = Pharmacokinetics study in rabbits after oral Panax notoginseng extract with or without Borneol (plasma, SPE-HPLC-MS); format: in vivo, New Zealand rabbits
Protocol: Liquid chromatography was carried out on an Agilent 1100 HPLC system with an auto sampler, a quaternary pump and a vacuum degasser (Waldoboro, Frankfurt, Germany). Operations were controlled by Agilent Chemstation 4.2 software (Littleforts, Philadelphia, USA). Separations were achieved on a reversed-phase HPLC column (Zorbax SB-C18 150 × 2.1 mm, 5.0 μm particle size). A solution of acetonitrile and water (V : V, 20 : 80) with 0.1% (V : V) ammonium formate was used as the mobile phase. The flow rate was set at 0.3 mL·min^−1 and the column temperature was 25°C. Under these conditions, NGR1, GRg1, and GRe in plasma samples were separated efficiently without any interferences.
MS^n detection was performed on an Agilent SL trap MS system (Waldoboro, Frankfurt, Germany). The ion source-dependent (electrospray ionization) conditions were the same for all analyses with a spraying voltage of −4500 V in the negative ion mode. The pressure of the nebulizing gas (nitrogen) was set at 35 p.s.i. The flow rate of the drying gas (nitrogen) was set at 7.0 L·min^−1 with the temperature of 325°C. The collision gas (He) for the MS^n mode at trap was set at flow of 4 (instrument unit). The voltage of the capillary was set at 4000 V, and its end plate offset was −500 V. Scan range was from 500 to 1500 m/z.
(§1) Frozen plasma and tissue samples were thawed in a water bath at 37°C and were then vortexed followed by centrifuging at 5000 r·min^−1 for 5 min. An aliquot of 1.0 mL of the supernatant from each sample was loaded onto C18 Bond Elute Solid phase extraction (SPE) cartridges (1000 mg, 1 cc reservoir, Varian, Harbor City, CA, USA) pretreated with 2.0 mL hexane, isopropanol, methanol, and water, sequentially. The SPE cartridges were then washed with 1.0 mL water, 20% methanol/water solution, 40% methanol/water solution, and 60% methanol/water solution, sequentially. Finally, analytes were eluted twice with 1.0 mL of 70% methanol/water solution. The eluant was evaporated to dryness under nitrogen. The residues were then reconstituted in 1.0 mL mobile phase. An aliquot of 10 μL was injected into the LC-MS system.
Eighteen rabbits were randomly divided into three groups of 6 subjects and were orally given 3.0 mL·kg^−1 normal saline, 3.0 mL·kg^−1 Panax notoginseng extract, and 3.0 mL·kg^−1 Panax notoginseng extract combined with Borneol, respectively. Plasma samples were collected in heparinized tubes from the central ear artery at 0.0, 5.0, 10.0, 20.0, 30.0, 45.0, 60.0, 75.0, 90.0, 120.0, 180.0, 300.0 and 480.0 min after dose. After each sampling, the same volume of 0.9% saline solution was injected from the ear vein to compensate the loss of blood. The plasma obtained was frozen at −70°C for storage and was processed prior to analysis with the proposed method as described in Section 2.6.
Statistical analysis of the biological data was performed using the Student's t-test. The drug analysis system 2.0 (DAS 2.0, T.C.M., Shanghai, China) was used to calculate the pharmacokinetic parameters, such as the area under curve (AUC), the maximum plasma concentration (C max), the time needed to reach the maximum plasma concentration (t max) and the half-life of absorption, and distribution and elimination (t 1/2Ka, t 1/2α, t 1/2β).

[2] = Tissue distribution study in rabbits after oral Panax notoginseng extract with or without Borneol; format: in vivo, New Zealand rabbits
Protocol: as §1
One group of rabbits (n = 18) was orally administered a dose of 3.0 mL·kg^−1 Panax notoginseng extract, while another group of rabbits (n = 18) was orally given 3.0 mL·kg^−1 Panax notoginseng extract combined with Borneol. At 0.5, 1, and 3 h after administration, blood samples were collected from the central ear artery of six rabbits from each group, and the heart, liver, lung, kidney, and brain were immediately removed after animals were sacrificed by decapitation. An accurately weighed amount of tissue (1 g) was collected to be rinsed, dried, minced, and homogenized (400 r·min^−1) in normal saline (1.5 mL). All of the samples were stored at −70°C and were processed prior to analysis with the proposed method as described in Section 2.6.

[3] = oral 3.0 mL·kg^−1 Panax notoginseng extract
[4] = oral 3.0 mL·kg^−1 Panax notoginseng extract combined with Borneol
[5] = 0.5 h, oral Panax notoginseng with Borneol
[6] = 1.0 h, oral Panax notoginseng with Borneol
[7] = 3.0 h, oral Panax notoginseng with Borneol
[8] = Borneol combined with Panax notoginseng, peak levels at 1.0 h

Q: For CC(C)=CCC[C@](C)(O[C@@H]1O[C@H](CO)[C@@H](O)[C@H](O)[C@H]1O)[C@H]1CC[C@]2(C)[C@@H]1[C@H](O)C[C@@H]1[C@@]3(C)CC[C@H](O)C(C)(C)[C@@H]3[C@@H](O[C@@H]3O[C@H](CO)[C@@H](O)[C@H](O)[C@H]3O[C@@H]3OC[C@@H](O)[C@H](O)[C@H]3O)C[C@]12C [NGR1, notoginsenoside R1], which “AUC0–t” value [1, 3] is on record?
A: The value was 162.1 ± 42.7 mg/L/min.

Q: What about the “AUC0–∞” value [1, 3] of the same compound?
A: Its value is 164.0 ± 51.8 mg/L/min.

Q: What about the C max [1, 3] of the same compound?
A: Its C max is 2120 ± 460 ng/mL.

Q: And the CL/F [1, 3]?
A: The CL/F was 488 ± 91 mL/min/kg.

Q: And the “K 10” value [1, 3]?
A: The value was 0.018 ± 0.005 min⁻¹.

Q: And the “K 12” value [1, 3]?
A: Its value is 0.000 ± 0.000 min⁻¹.

Q: What about the “K 21” value [1, 3] of the same compound?
A: The value was 0.014 ± 0.007 min⁻¹.

Q: What about the K a [1, 3] of the same compound?
A: The K a was 0.060 ± 0.004 min⁻¹.

Q: And the T lag [1, 3]?
A: Its T lag is 2.38 ± 0.49 min.

Q: And the T max [1, 3]?
A: The T max was 45.0 ± 9.8 min.

Q: What about the V/F [1, 3] of the same compound?
A: Its V/F is 27.3 ± 8.6 L/kg.

Q: What about the “t 1/2Ka” value [1, 3] of the same compound?
A: Its value is 11.6 ± 2.4 min.

Q: What about the “t 1/2α” value [1, 3] of the same compound?
A: Its value is 38.5 ± 4.5 min.

Q: And the “t 1/2β” value [1, 3]?
A: The value was 47.9 ± 8.1 min.

Q: And the α [1, 3]?
A: Its α is 0.018 ± 0.008 min⁻¹.

Q: And the β [1, 3]?
A: Its β is 0.014 ± 0.003 min⁻¹.

Q: And the “AUC0–t” value [1, 4]?
A: The value was 306.3 ± 82.9 mg/L/min.

Q: And the “AUC0–∞” value [1, 4]?
A: The value was 395.3 ± 101.4 mg/L/min.

Q: What about the C max [1, 4] of the same compound?
A: The C max was 1620 ± 300 ng/mL.

Q: And the CL/F [1, 4]?
A: Its CL/F is 506 ± 27 mL/min/kg.

Q: What about the “K 10” value [1, 4] of the same compound?
A: Its value is 0.009 ± 0.002* min^−1.

Q: What about the “K 12” value [1, 4] of the same compound?
A: The value was 0.015 ± 0.005** min^−1.

Q: What about the “K 21” value [1, 4] of the same compound?
A: The value was 0.011 ± 0.002 min⁻¹.

Q: And the K a [1, 4]?
A: Its K a is 0.037 ± 0.005** min^−1.

Q: And the T lag [1, 4]?
A: The T lag was 1.04 ± 0.21 min.

Q: What about the T max [1, 4] of the same compound?
A: The T max was 30.0 ± 8.0 min.

Q: And the V/F [1, 4]?
A: Its V/F is 58.8 ± 6.9 L/kg.

Q: And the “t 1/2Ka” value [1, 4]?
A: The value was 18.8 ± 3.1 min.

Q: And the “t 1/2α” value [1, 4]?
A: Its value is 28.4 ± 3.2 min.

Q: And the “t 1/2β” value [1, 4]?
A: Its value is 69.3 ± 5.2 min.

Q: What about the α [1, 4] of the same compound?
A: Its α is 0.024 ± 0.005 min⁻¹.

Q: What about the β [1, 4] of the same compound?
A: Its β is 0.010 ± 0.003* min^−1.

Q: What about the Concentration in brain ([2]; 0.5 h, oral Panax notoginseng) of the same compound?
A: The Concentration in brain was 0.65 ± 0.24 µg/g.

Q: What about the Concentration in heart ([2]; 0.5 h, oral Panax notoginseng) of the same compound?
A: The Concentration in heart was 3.90 ± 0.53 µg/g.

Q: And the Concentration in kidney ([2]; 0.5 h, oral Panax notoginseng)?
A: The Concentration in kidney was 2.85 ± 0.45 µg/g.

Q: What about the Concentration in liver ([2]; 0.5 h, oral Panax notoginseng) of the same compound?
A: The Concentration in liver was 1.38 ± 0.54 µg/g.

Q: What about the Concentration in lung ([2]; 0.5 h, oral Panax notoginseng) of the same compound?
A: Its Concentration in lung is 1.77 ± 0.46 µg/g.

Q: What about the Concentration in plasma ([2]; 0.5 h, oral Panax notoginseng) of the same compound?
A: Its Concentration in plasma is 1670 ± 50 ng/mL.

Q: What about the Concentration in brain [2, 5] of the same compound?
A: Its Concentration in brain is 4.02 ± 0.46 µg/g.

Q: What about the Concentration in heart [2, 5] of the same compound?
A: Its Concentration in heart is 4.68 ± 0.21 µg/g.

Q: And the Concentration in kidney [2, 5]?
A: Its Concentration in kidney is 3.98 ± 0.12 µg/g.

Q: What about the Concentration in liver [2, 5] of the same compound?
A: The Concentration in liver was 8.24 ± 0.42 µg/g.

Q: What about the Concentration in lung [2, 5] of the same compound?
A: Its Concentration in lung is 5.79 ± 0.29 µg/g.

Q: And the Concentration in plasma [2, 5]?
A: Its Concentration in plasma is 1620 ± 70 ng/mL.

Q: And the Concentration in brain ([2]; 1.0 h, oral Panax notoginseng)?
A: The Concentration in brain was 0.81 ± 0.26 µg/g.

Q: What about the Concentration in heart ([2]; 1.0 h, oral Panax notoginseng) of the same compound?
A: Its Concentration in heart is 4.26 ± 0.27 µg/g.

Q: And the Concentration in kidney ([2]; 1.0 h, oral Panax notoginseng)?
A: The Concentration in kidney was 2.74 ± 0.33 µg/g.

Q: And the Concentration in liver ([2]; 1.0 h, oral Panax notoginseng)?
A: The Concentration in liver was 1.66 ± 0.28 µg/g.

Q: What about the Concentration in lung ([2]; 1.0 h, oral Panax notoginseng) of the same compound?
A: The Concentration in lung was 1.82 ± 0.20 µg/g.

Q: What about the Concentration in plasma ([2]; 1.0 h, oral Panax notoginseng) of the same compound?
A: The Concentration in plasma was 1290 ± 200 ng/mL.

Q: What about the Concentration in brain [2, 6] of the same compound?
A: The Concentration in brain was 5.58 ± 0.68 µg/g.

Q: What about the Concentration in heart [2, 6] of the same compound?
A: Its Concentration in heart is 5.55 ± 0.31 µg/g.

Q: And the Concentration in kidney [2, 6]?
A: The Concentration in kidney was 3.38 ± 0.34 µg/g.

Q: What about the Concentration in liver [2, 6] of the same compound?
A: Its Concentration in liver is 9.29 ± 0.72 µg/g.

Q: What about the Concentration in lung [2, 6] of the same compound?
A: The Concentration in lung was 9.96 ± 0.66 µg/g.

Q: And the Concentration in plasma [2, 6]?
A: Its Concentration in plasma is 1460 ± 50 ng/mL.

Q: What about the Concentration in brain ([2]; 3.0 h, oral Panax notoginseng) of the same compound?
A: The Concentration in brain was 0.48 ± 0.14 µg/g.

Q: And the Concentration in heart ([2]; 3.0 h, oral Panax notoginseng)?
A: Its Concentration in heart is 3.31 ± 0.32 µg/g.

Q: And the Concentration in kidney ([2]; 3.0 h, oral Panax notoginseng)?
A: The Concentration in kidney was 1.94 ± 0.24 µg/g.

Q: What about the Concentration in liver ([2]; 3.0 h, oral Panax notoginseng) of the same compound?
A: The Concentration in liver was 0.89 ± 0.12 µg/g.

Q: What about the Concentration in lung ([2]; 3.0 h, oral Panax notoginseng) of the same compound?
A: The Concentration in lung was 1.51 ± 0.16 µg/g.

Q: And the Concentration in plasma ([2]; 3.0 h, oral Panax notoginseng)?
A: Its Concentration in plasma is 160 ± 60 ng/mL.

Q: What about the Concentration in brain [2, 7] of the same compound?
A: Its Concentration in brain is 3.69 ± 0.84 µg/g.

Q: And the Concentration in heart [2, 7]?
A: The Concentration in heart was 4.59 ± 0.52 µg/g.

Q: And the Concentration in kidney [2, 7]?
A: The Concentration in kidney was 2.27 ± 0.28 µg/g.

Q: What about the Concentration in liver [2, 7] of the same compound?
A: Its Concentration in liver is 6.87 ± 0.61 µg/g.

Q: And the Concentration in lung [2, 7]?
A: Its Concentration in lung is 4.56 ± 0.75 µg/g.

Q: And the Concentration in plasma [2, 7]?
A: The Concentration in plasma was 490 ± 20 ng/mL.

Q: And the “level in kidney, fold higher than the plasma concentrations” value ([2]; Borneol combined with Panax notoginseng, at 1.0 h)?
A: Its value is 2.3 fold.

Q: What about the “level in brain, fold higher than the plasma concentrations” value [2, 8] of the same compound?
A: The value was 3.82 fold.

Q: And the “level in liver, fold higher than the plasma concentrations” value [2, 8]?
A: The value was 6.36 fold.

Q: And the “level in lung, fold higher than the plasma concentrations” value [2, 8]?
A: The value was 6.82 fold.
